Experimental data from patent US20240122938A1, “METHODS AND COMPOSITIONS FOR TREATING UVEAL MELANOMA” (INSERM (INSTITUT NATIONAL DE LA SANTÉ ET DE LA RECHERCHE …, priority 2019, published 2024).

How the values were obtained:
OMM1 cells = experiment: Cell proliferation assay; type: cell-based, human; conditions: OMM1 metastatic melanoma cells
Procedure: (§1) Human uveal melanoma cell lines and short-term cultures derived from different patients with metastatic malignant melanoma cells were grown in DMEM supplemented with 7% FBS at 37° C. in a humidified atmosphere containing 5% CO2. Lipofectamine™ RNAiMAX and opti-MEM medium were purchased from Invitrogen (San Diego, CA, USA). ABT-263 was obtained from Euromedex and qVD from Clinisciences.

[1] = tested on: OMM2,5 metastatic melanoma cells; experiment: Cell proliferation assay; type: cell-based, human
Procedure: as §1

primary melanoma cells = experiment: Cell proliferation assay; type: cell-based, human; conditions: data not shown
Procedure: as §1

metastatic cell lines = experiment: Colony formation assay; type: cell-based, human; conditions: metastatic versus primary cell lines; data not shown
Procedure: Human uveal melanoma cells were seeded onto 6-well plates. The cells were subsequently placed in a 37° C., 5% C02 incubator. Colonies of cells were grown before being stained with 0.04% crystal violet/2% ethanol in PBS for 30 min. Photographs of the stained colonies were captured. The colony formation assay was performed in duplicate.

[2] = tested on: 92.1 uveal melanoma cells xenografts; experiment: Subcutaneous tumor xenograft; type: in vivo, athymic nude mice; conditions: 92.1 xenografts
Procedure: FIG. 3. ABT-263 reduces tumor growth in vivo. (A) Primary 92.1 uveal melanoma cells were subcutaneously engrafted into athymic nude mice. Once the tumours reached 100 mm3, mice were treated daily with ABT-263. The arrow indicates the start of the treatment. The growth tumor curves were determined by measuring the tumor volume using the equation V=(L Å˜W2)/2. […] (B) Sub-cutaneous tumor weight from control (Ct) and ABT-263-treated mice is shown. (C) Blood biochemical analysis of mice xenografted with OMM1 cells. Serum activity of alanine transaminase (ALT) and aspartate transaminase (AST) was measured in control and ABT-263 by spectrophotometric methods after the end of treatment. Data are presented as mean±SD (n=5 per group). Animal experiments were performed in accordance with French law and approved by a local institutional ethical committee. The animals were maintained in a temperature-controlled facility (22° C.) on a 12-h light/dark cycle and provided free access to food (standard laboratory chow diet from UAR, Epinay-S/Orge, France). Human Mel270 uvealmelanoma cells were subcutaneously inoculated into 8-week-old female, immune-deficient, athymic, nude FOXN1nu mice (Harlan Laboratory). […] The growth tumor curves were determined after measuring the tumor volume using the equation V=(L×W2)/2. […]

XBP1 splicing = XBP1 splicing (QRT-PCR); type: cell-based, human; conditions: both primary cells and metastatic OMM1 cells
Procedure: The mRNA was isolated using TRIzol (Invitrogen) according to a standard procedure. QRT-PCR was performed using SYBR® Green I (Eurogentec, Seraing, Belgium) and Multiscribe Reverse Transcriptase (Applied Biosystems) and subsequently monitored using the ABI Prism 7900 Sequence Detection System (Applied Biosystems, Foster City, CA). The detection of the SB34 gene was used to normalize the results. Spliced Xbp1 primers were previously reported27. Primer sequences for each cDNA were designed using either Primer Express Software (Applied Biosystems) or qPrimer depot (http://primerdepot.nci.nih.gov), and these sequences are available upon request.

[3] = single agent, phase I/II; cited from earlier work

SMILES: CC1(C)CCC(c2ccc(Cl)cc2)=C(CN2CCN(c3ccc(C(=O)NS(=O)(=O)c4ccc(N[C@H](CCN5CCOCC5)CSc5ccccc5)c(S(=O)(=O)C(F)(F)F)c4)cc3)CC2)C1 [ABT-263, 4-[4-[[2-(4-chlorophenyl)-5,5-dimethyl-1-cyclohexen-1-yl]methyl]-1-piperazinyl]-N-[[4-[[(1R)-3-(4-morpholinyl)-1-[(phenylthio)methyl]propyl]amino]-3-[(trifluoromethyl)sulfonyl]phenyl]sulfonyl]-benzamide]
- proliferation (OMM1 cells): strongly reduced proliferation
- proliferation [1]: strongly reduced proliferation
- proliferation, response of primary melanoma cells (primary melanoma cells): highly resistant
- long-term growth inhibitory activity (colony formation) (metastatic cell lines): more sensitive
- tumor growth [2]: almost no effect
- XBP1 splicing (XBP1 splicing): significantly higher
- side effects [3]: thrombocytopenia
